# Laboratory results reported in patent US20200055839A1 (priority 2017, published 2020).
# Test system: NL-RLuc virus
# Test: Inhibition of HIV replication (NL-RLuc virus, luciferase readout in MT-2 cells)
# Format: cell-based
# Conditions: Human immunodeficiency virus 1, MT2, 120 h, MT-2 cells infected with NL-RLuc virus, 5 days of incubation, 10% FBS, at least 2 experiments
# How it was run: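 EC50 derived via median effect equation from at least 2 experiments, using luciferase expression as virus-growth readout. Replication-competent NL-RLuc reporter virus (nef partly replaced by Renilla luciferase) infected MT-2 cells with serial compound dilutions; 5-day incubation in RPMI 1640 plus 10% FBS.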
row,Structure (SMILES),EC50
1,"Cc1ncc(-c2ccc(OCCc3ccccc3Cl)cn2)c(N2CCC(C)(C)CC2)c1[C@H](OC(C)(C)C)C(=O)O [Example 302, (2S)-2-(tert-butoxy)-2-{5-[2-(2-chlorophenyl)ethoxy]-4′-(4,4-dimethylpiperidin-1-yl)-6′-methyl-[2,3′-bipyridine]-5′-yl}acetic acid]",0.6 nM
2,"Cc1ncc(-c2ccc(OCCc3ccccc3F)cn2)c(N2CCC(C)(C)CC2)c1[C@H](OC(C)(C)C)C(=O)O [Example 303, (2S)-2-(tert-butoxy)-2-[4′-(4,4-dimethylpiperidin-1-yl)-5-[2-(2-fluorophenyl)ethoxy]-6′-methyl-[2,3′-bipyridine]-5′-yl]acetic acid]",0.6 nM
3,"Cc1ncc(-c2ccc(OCCc3cccc(F)c3)cn2)c(N2CCC(C)(C)CC2)c1[C@H](OC(C)(C)C)C(=O)O [Example 304, (2S)-2-(tert-butoxy)-2-[4′-(4,4-dimethylpiperidin-1-yl)-5-[2-(3-fluorophenyl)ethoxy]-6′-methyl-[2,3′-bipyridine]-5′-yl]acetic acid]",0.5 nM
4,"Cc1ncc(-c2ccc(OCCc3c(F)cccc3Cl)cn2)c(N2CCC(C)(C)CC2)c1[C@H](OC(C)(C)C)C(=O)O [Example 305, (2S)-2-(tert-butoxy)-2-{5-[2-(2-chloro-6-fluorophenyl)ethoxy]-4′-(4,4-dimethylpiperidin-1-yl)-6′-methyl-[2,3′-bipyridine]-5′-yl}acetic acid]",1 nM
5,"Cc1ncc(-c2ccc(OCCc3ccc(F)cc3F)cn2)c(N2CCC(C)(C)CC2)c1[C@H](OC(C)(C)C)C(=O)O [Example 306, (2S)-2-(tert-butoxy)-2-{5-[2-(2,4-difluorophenyl)ethoxy]-4′-(4,4-dimethylpiperidin-1-yl)-6′-methyl-[2,3′-bipyridine]-5′-yl}acetic acid]",0.6 nM
6,"Cc1ncc(-c2ccc(OCCc3ccc(F)c(Cl)c3)cn2)c(N2CCC(C)(C)CC2)c1[C@H](OC(C)(C)C)C(=O)O [Example 307, (2S)-2-(tert-butoxy)-2-{5-[2-(3-chloro-4-fluorophenyl)ethoxy]-4′-(4,4-dimethylpiperidin-1-yl)-6′-methyl-[2,3′-bipyridine]-5′-yl}acetic acid]",1 nM
7,"Cc1ncc(-c2ccc(OCCc3cccc(Cl)c3)cn2)c(N2CCC(C)(C)CC2)c1[C@H](OC(C)(C)C)C(=O)O [Example 308, (2S)-2-(tert-butoxy)-2-{5-[2-(3-chlorophenyl)ethoxy]-4′-(4,4-dimethylpiperidin-1-yl)-6′-methyl-[2,3′-bipyridine]-5′-yl}acetic acid]",0.7 nM
8,"Cc1ncc(-c2ccc(OCCc3ccc(Cl)cc3)cn2)c(N2CCC(C)(C)CC2)c1[C@H](OC(C)(C)C)C(=O)O [Example 309, (2S)-2-(tert-butoxy)-2-{5-[2-(4-chlorophenyl)ethoxy]-4′-(4,4-dimethylpiperidin-1-yl)-6′-methyl-[2,3′-bipyridine]-5′-yl}acetic acid]",0.4 nM
9,"Cc1ncc(-c2ccc(OCCc3ccc(F)cc3Cl)cn2)c(N2CCC(C)(C)CC2)c1[C@H](OC(C)(C)C)C(=O)O [Example 310, (2S)-2-(tert-butoxy)-2-{5-[2-(2-chloro-4-fluorophenyl)ethoxy]-4′-(4,4-dimethylpiperidin-1-yl)-6′-methyl-[2,3′-bipyridine]-5′-yl}acetic acid]",0.5 nM
10,"Cc1ncc(-c2ccc(O[C@@H](C)C(C)C)cn2)c(N2CCC(C)(C)CC2)c1[C@H](OC(C)(C)C)C(=O)O [Example 311, (2S)-2-(tert-butoxy)-2-[4′-(4,4-dimethylpiperidin-1-yl)-6′-methyl-5-{[(2S)-3-methylbutan-2-yl]oxy}-[2,3′-bipyridine]-5′-yl]acetic acid]",1 nM
11,"Cc1ncc(-c2ccc(OCC(C)C)cn2)c(N2CCC(C)(C)CC2)c1[C@H](OC(C)(C)C)C(=O)O [Example 312, (2S)-2-(tert-butoxy)-2-[4′-(4,4-dimethylpiperidin-1-yl)-6′-methyl-5-(2-methylpropoxy)-[2,3′-bipyridine]-5′-yl]acetic acid]",1 nM
12,"CCCCOc1ccc(-c2cnc(C)c([C@H](OC(C)(C)C)C(=O)O)c2N2CCC(C)(C)CC2)nc1 [Example 313, (2S)-2-(tert-butoxy)-2-[5-butoxy-4′-(4,4-dimethylpiperidin-1-yl)-6′-methyl-[2,3′-bipyridine]-5′-yl]acetic acid]",1 nM
13,"Cc1ncc(-c2ccc(OC(C)C)cn2)c(N2CCC(C)(C)CC2)c1[C@H](OC(C)(C)C)C(=O)O [Example 314, (2S)-2-(tert-butoxy)-2-[4′-(4,4-dimethylpiperidin-1-yl)-6′-methyl-5-(propan-2-yloxy)-[2,3′-bipyridine]-5′-yl]acetic acid]",5 nM
14,"Cc1ncc(-c2ccc(OCCC(C)C)cn2)c(N2CCC(C)(C)CC2)c1[C@H](OC(C)(C)C)C(=O)O [Example 315, (2S)-2-(tert-butoxy)-2-[4′-(4,4-dimethylpiperidin-1-yl)-6′-methyl-5-(3-methylbutoxy)-[2,3′-bipyridine]-5′-yl]acetic acid]",2 nM
15,"Cc1ncc(-c2ccc(OCCC(C)(C)C)cn2)c(N2CCC(C)(C)CC2)c1[C@H](OC(C)(C)C)C(=O)O [Example 316, (2S)-2-(tert-butoxy)-2-[5-(3,3-dimethylbutoxy)-4′-(4,4-dimethylpiperidin-1-yl)-6′-methyl-[2,3′-bipyridine]-5′-yl]acetic acid]",2 nM
16,"CCCCCOc1ccc(-c2cnc(C)c([C@H](OC(C)(C)C)C(=O)O)c2N2CCC(C)(C)CC2)nc1 [Example 317, (2S)-2-(tert-butoxy)-2-[4′-(4,4-dimethylpiperidin-1-yl)-6′-methyl-5-(pentyloxy)-[2,3′-bipyridine]-5′-yl]acetic acid]",1 nM
17,"CCCOc1ccc(-c2cnc(C)c([C@H](OC(C)(C)C)C(=O)O)c2N2CCC(C)(C)CC2)nc1 [Example 318, (2S)-2-(tert-butoxy)-2-[4′-(4,4-dimethylpiperidin-1-yl)-6′-methyl-5-propoxy-[2,3′-bipyridine]-5′-yl]acetic acid]",3 nM
18,"Cc1ncc(-c2ccc(O[C@H](C)C(C)C)cn2)c(N2CCC(C)(C)CC2)c1[C@H](OC(C)(C)C)C(=O)O [Example 319, (2S)-2-(tert-butoxy)-2-[4′-(4,4-dimethylpiperidin-1-yl)-6′-methyl-5-{[(2R)-3-methylbutan-2-yl]oxy}-[2,3′-bipyridine]-5′-yl]acetic acid]",7 nM
19,"CCOc1ccc(CCOc2ccc(-c3cnc(C)c([C@H](OC(C)(C)C)C(=O)O)c3N3CCC(C)(C)CC3)nc2)cc1 [Example 320, (2S)-2-(tert-butoxy)-2-[4′-(4,4-dimethylpiperidin-1-yl)-5-[2-(4-ethoxyphenyl)ethoxy]-6′-methyl-[2,3′-bipyridine]-5′-yl]acetic acid]",2 nM
20,"Cc1ncc(-c2ccc(OCCCc3ccccc3)cn2)c(N2CCC(C)(C)CC2)c1[C@H](OC(C)(C)C)C(=O)O [Example 321, (2S)-2-(tert-butoxy)-2-[4′-(4,4-dimethylpiperidin-1-yl)-6′-methyl-5-(3-phenylpropoxy)-[2,3′-bipyridine]-5′-yl]acetic acid]",0.5 nM
21,"CCc1ccc(CCOc2ccc(-c3cnc(C)c([C@H](OC(C)(C)C)C(=O)O)c3N3CCC(C)(C)CC3)nc2)cc1 [Example 322, (2S)-2-(tert-butoxy)-2-[4′-(4,4-dimethylpiperidin-1-yl)-5-[2-(4-ethylphenyl)ethoxy]-6′-methyl-[2,3′-bipyridine]-5′-yl]acetic acid]",0.7 nM
